# Tests used:
# Format in all cases: biochemical
# ERK-1 = molecular target: T1, ERK-1 (Homo sapiens, UniProt P27361); assay: ERK-1 enzyme inhibition (MBP, 32P-ATP); conditions: ERK-1, 100 μM ATP
# T1 construct: purchased Upstate
# Method: (§1) The test solution prepared above by dissolving a test compound in DMSO was added to the reaction solution in an amount of less than 5% based on the total reaction solution to analyze the capacity for enzyme inhibitory activity. The cpm value obtained when the test compounds was present relative to the cpm value in the absence of the test compound was represented by percentage, and IC50 (μM) was determined as the concentration of the test compound required to inhibit the enzyme activity by 50% relatively to the control solution.
# (§2) The compounds prepared in the Examples were dissolved in dimethylsulfoxide (DMSO) at a concentration of 12.5 mM to prepare test compounds and enzyme reaction was conducted in a buffer solution containing 50 mM of tris-HCl (pH 7.5), 10 mM of MgCl2, 1 mM of EGTA, 1 mM of EDTA and 1 mM of DTT. 0.33 mg/ml of MBP (Upstate), 100 μM of ATP and 0.25 μCi of ^32P-ATP were added to the buffer solution as substrates. 5 nM of recombinant Erk-1 (Upstate) was added the resulting mixture, and the mixture was reacted at 30° C. for 1 hour. The reaction was terminated by adding 5 μl of 5% phosphoric acid solution to 25 μl of the reaction mixture. 15 μl of the resulting solution was dropped on whatman p81 filter paper, which was then washed in 0.5% phosphoric acid solution for 10 mins. After repeating the washing 3 times, the filter paper was dried and cpm thereof was measured by a liquid scintillation counter (Packard, USA). Inhibitory capacities of the test compounds for the enzyme activity were assessed according to the same method as in GSK-3β analysis, and IC50 value was calculated.
# CDK-2/cycline A = molecular target: T2, CDK-2/cycline A (Homo sapiens, UniProt P24941); assay: CDK-2 enzyme inhibition (histone H1, 32P-ATP)
# T2 construct: purchased Upstate
# Method: as §2, with “0.33” for “The compounds prepared in the Examples were dissolved in dimethylsulfoxide (DMSO) at a concentration of 12.5 mM to prepare test compounds and enzyme reaction was conducted in a buffer solution containing 50 mM of tris-HCl (pH 7.5), 10 mM of MgCl2, 1 mM of EGTA, 1 mM of EDTA and 1 mM of DTT. 0.33”
# The procedure of ERK-1 analysis was repeated to assess inhibitory capacities of the test compounds for the enzyme activity, except for using 2.5 μg of histone H1 (Upstate) and 100 nM of recombinant CDK-2/cycline A (Upstate).
# human GSK-3β = human GSK-3β (Homo sapiens, UniProt P49841); assay: GSK-3β enzyme inhibition (32P-ATP, phospho-CREB peptide, filter paper); conditions: 100 μM ATP, 30° C., 1 hour
# Method: GSK-3β was prepared by a gene recombination method.
# First, primers corresponding to 5′-end and 3′-end of polynucleotide encoding human GSK-3β were designed and synthesized from nucleotide sequence of human GSK-3β (GenBank Reg. No. L33801). Then, the primers were amplified by PCR (polymerase chain reaction) in which a human DNA sequence was employed as a template and treated with restriction enzyme BamH1/XhoI. The resulting gene fragments were inserted into the corresponding identical restriction sites of pGex vector (GE Healthcare Life Science) to prepare an expression vector for transformation of E. coli BL21 (DE3) strain (Invitrogen). The transformed E. coli strain was inoculated to LB medium (1% Bacto tryptone, 0.5% yeast extract, 1% sodium chloride) and cultured until the optical density of the bacterial cells was about 0.5 at 600 nm and 37° C. Then, IPTG (isopropyl-β-D-thiogalactoside) was added thereto to a final concentration to 0.5 mM at 18° C. 16 hours after IPTG addition, the cells were subjected to centrifugation at 10,000×g for 10 mins and cell precipitates were collected. The cell precipitates were suspended in a buffer solution (30 mM tris-HCl (pH 7.5), 100 mM NaCl, 5% glycerol, 2 mM DTT) and the cells were smashed in an ice bath using a Sonic Dismembrator (Fisher, USA). The resulting solution was centrifuged at 16,000 rpm for 30 mins.
# The supernatant obtained above was introduced to a pre-equilibrated GST column (Pharmacia, USA) and eluted by 5 mM glutachione. The effuent was subjected to SDS-PAGE and GSK-3β protein was collected. GST protein was cutt using thrombin. The GSK-3β protein thus obtained was diluted with a buffer solution (20 mM HEPES (pH 7.5), 5% glycerol, 2 mM DTT) until the concentration of NaCl reached 50 mM. The diluted solution was introduced to Mono S column (Pharmacia, USA) equilibrated with the above buffer solution and eluted with a aqueous NaCl while changing the concentration from 0 to 1 M NaCl, and GSK-3β protein was collected by a electrophoresis. The purified protein was used in the analysis for the activity for enzyme activity.
# The enzyme reaction was conducted in a buffer solution (50 mM of tris-HCl (pH 7.5), 10 mM of MgCl2, 1 mM of EGTA, 1 mM of EDTA and 1 mM of DTT). 100 μM of phosho-CREB peptide (NEB, USA), 100 μM of ATP and 1 μCi of ^32P-ATP were added to the buffer solution as substrates. And then 100 nM of recombinant GSK-3β was added thereto and the mixture was reacted at 30° C. for 1 hour. The reaction was terminated by the addition of 5 μl of 5% phosphoric acid solution to 25 μl of the reaction mixture. The resulting solution was subjected to centrifugation at 15,000 for 10 mins and 20 μl of the supernatant thus obtained was dropped on whatman p81 filter paper. The filter paper was washed in 0.5% phosphoric acid solution for 10 mins. After repeating the washing 3 times, the filter paper was dried and its cpm (counter per mins) was assessed.
# The test solution prepared above by dissolving a test compound in DMSO was added to the reaction solution in an amount of less than 5% based on the total reaction solution to analyze the capacity for enzyme inhibitory activity.
# KDR = molecular target: T3, KDR (Homo sapiens, UniProt P35968); assay: KDR enzyme inhibition (Biotin-polyE4Y, alphascreen); conditions: 0.1 μM ATP
# T3 construct: purchased Upstate
# Method: as §1
# The compounds prepared in the Examples were dissolved in dimethylsulfoxide (DMSO) at a concentration of 12.5 mM to prepare test solution, and enzyme reaction was conducted in a buffer solution containing 50 mM tris-HCl (pH 7.5), 5 mM MgCl2, 1 mM MnCl2, 0.01% tween-20 and 2 mM of DTT. 1 nM of Biotin-polyE4Y (Packard) and 0.1 μM of ATP were added to the buffer solution as substrates. 2 nM of recombinant KDR (Upstate) was added the resulting mixture and reaction was carried out at 30° C. for 1 hour. 10 μl of a diluted solution prepared by diluting alphascreen phosphotyrosine (T-Tyr-100, Packard) beads with a solution containing 6.25 mM of HEPES (pH 7.4), 250 mM of NaCl, 100 Mm EDTA, and 0.25% BSA was added to 15 μl of the KDR reaction solution. After a reaction at a room temperature for 1 hour, alphascreen signal was measured by a fusion a-FP (Packard). Inhibitory capacities of the test compounds for the enzyme activity were assessed according to the same method as in GSK-3β analysis, and IC50 value was calculated.
# JNK-1 = molecular target: T4, JNK-1 (Homo sapiens, UniProt P45983); assay: JNK-1 enzyme inhibition (GST-ATF2, 32P-ATP)
# T4 construct: purchased Upstate
# T4 sequence (P45983 whole entry, species assumed): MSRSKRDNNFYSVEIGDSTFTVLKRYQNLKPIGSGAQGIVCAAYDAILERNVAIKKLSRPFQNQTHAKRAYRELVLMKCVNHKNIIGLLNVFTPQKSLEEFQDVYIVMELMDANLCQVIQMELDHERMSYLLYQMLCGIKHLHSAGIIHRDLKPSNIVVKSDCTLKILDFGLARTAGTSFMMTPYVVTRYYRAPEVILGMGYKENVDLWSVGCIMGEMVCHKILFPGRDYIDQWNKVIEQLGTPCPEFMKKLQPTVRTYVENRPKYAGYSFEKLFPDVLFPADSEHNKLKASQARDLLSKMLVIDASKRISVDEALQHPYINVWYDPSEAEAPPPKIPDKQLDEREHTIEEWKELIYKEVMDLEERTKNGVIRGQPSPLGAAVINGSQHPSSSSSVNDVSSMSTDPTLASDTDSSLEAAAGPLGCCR
# Sequence of human GSK-3β (P49841 whole entry): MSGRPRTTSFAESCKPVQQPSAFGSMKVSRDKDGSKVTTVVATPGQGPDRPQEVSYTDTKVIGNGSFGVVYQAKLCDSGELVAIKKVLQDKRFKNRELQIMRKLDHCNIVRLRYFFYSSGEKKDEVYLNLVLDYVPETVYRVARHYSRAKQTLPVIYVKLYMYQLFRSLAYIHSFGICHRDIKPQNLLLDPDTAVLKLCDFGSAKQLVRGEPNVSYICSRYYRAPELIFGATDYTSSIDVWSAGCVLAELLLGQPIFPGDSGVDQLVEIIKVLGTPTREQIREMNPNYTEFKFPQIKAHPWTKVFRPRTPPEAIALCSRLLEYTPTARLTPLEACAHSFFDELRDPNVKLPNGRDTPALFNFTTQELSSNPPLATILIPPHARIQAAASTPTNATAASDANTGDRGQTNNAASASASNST
# T3 sequence (P35968 20-1356, species assumed): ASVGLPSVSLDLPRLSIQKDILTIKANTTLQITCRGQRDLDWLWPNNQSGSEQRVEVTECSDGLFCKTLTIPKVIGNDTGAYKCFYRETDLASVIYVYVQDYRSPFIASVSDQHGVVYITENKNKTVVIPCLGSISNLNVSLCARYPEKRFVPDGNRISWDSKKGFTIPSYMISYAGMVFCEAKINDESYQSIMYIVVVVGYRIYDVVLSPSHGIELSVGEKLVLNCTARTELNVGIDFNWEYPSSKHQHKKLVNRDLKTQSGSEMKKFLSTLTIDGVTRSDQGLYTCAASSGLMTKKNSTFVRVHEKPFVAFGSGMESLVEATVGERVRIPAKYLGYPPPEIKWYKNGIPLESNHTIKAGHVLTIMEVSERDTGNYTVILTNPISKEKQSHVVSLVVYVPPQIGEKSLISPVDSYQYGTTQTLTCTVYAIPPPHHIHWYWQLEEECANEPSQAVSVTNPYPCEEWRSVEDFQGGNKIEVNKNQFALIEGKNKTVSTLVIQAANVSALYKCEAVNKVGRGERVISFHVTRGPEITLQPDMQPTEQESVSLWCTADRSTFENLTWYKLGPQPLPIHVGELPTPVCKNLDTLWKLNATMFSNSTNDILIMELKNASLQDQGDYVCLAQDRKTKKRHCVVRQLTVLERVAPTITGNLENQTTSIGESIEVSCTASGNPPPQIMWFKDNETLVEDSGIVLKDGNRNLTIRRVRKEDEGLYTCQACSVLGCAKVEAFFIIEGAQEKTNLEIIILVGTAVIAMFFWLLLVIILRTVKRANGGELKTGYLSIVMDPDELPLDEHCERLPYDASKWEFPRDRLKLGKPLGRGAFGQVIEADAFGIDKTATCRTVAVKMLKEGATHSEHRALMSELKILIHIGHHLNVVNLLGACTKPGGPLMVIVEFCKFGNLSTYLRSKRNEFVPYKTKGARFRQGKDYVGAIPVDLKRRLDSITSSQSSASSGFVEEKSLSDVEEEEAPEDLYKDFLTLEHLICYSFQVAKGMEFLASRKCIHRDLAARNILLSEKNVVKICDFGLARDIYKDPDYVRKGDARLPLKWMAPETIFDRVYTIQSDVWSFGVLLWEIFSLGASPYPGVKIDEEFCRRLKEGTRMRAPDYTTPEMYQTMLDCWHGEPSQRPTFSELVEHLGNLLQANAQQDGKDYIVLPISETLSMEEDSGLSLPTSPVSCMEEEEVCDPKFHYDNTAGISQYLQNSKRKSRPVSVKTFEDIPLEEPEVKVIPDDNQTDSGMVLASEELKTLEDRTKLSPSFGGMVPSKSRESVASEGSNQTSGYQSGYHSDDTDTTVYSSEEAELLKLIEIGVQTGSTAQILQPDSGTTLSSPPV
# T1 sequence (P27361 whole entry, species assumed): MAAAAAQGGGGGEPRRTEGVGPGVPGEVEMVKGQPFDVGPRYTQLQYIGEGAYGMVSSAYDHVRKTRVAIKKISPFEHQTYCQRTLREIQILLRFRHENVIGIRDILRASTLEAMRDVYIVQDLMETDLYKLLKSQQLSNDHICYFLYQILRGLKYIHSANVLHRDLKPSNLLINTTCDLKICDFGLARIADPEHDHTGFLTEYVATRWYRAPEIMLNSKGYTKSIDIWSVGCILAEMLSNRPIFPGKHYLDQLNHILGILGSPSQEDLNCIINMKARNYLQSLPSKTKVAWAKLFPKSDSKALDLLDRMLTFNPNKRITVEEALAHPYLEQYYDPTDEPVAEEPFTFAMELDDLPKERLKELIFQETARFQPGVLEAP
SMILES,IC50 (CDK-2/cycline A),IC50 (human GSK-3β),other results
"Cc1ccncc1NC(=O)c1c(Br)cnc2[nH]c(-c3cccc(F)c3)nc12 [Example 452, 6-bromo-2-(3-fluoro-phenyl)-3H-imidazo[4,5-b]pyridine-7-carboxylic acid(4-methyl-pyridin-3-yl)-amide]",350 nM,–,IC50 (ERK-1): 19000 nM
"CCOc1ccncc1NC(=O)c1ccnc2[nH]c(-c3ccc(N4CCCC4)cc3)nc12 [Example 404, 2-(4-pyrrolidin-1-yl-phenyl)-3H-imidazo[4,5-b]pyridine-7-carboxylic acid(4-ethoxy-pyridin-3-yl)-amide]",–,3 nM,–
"CN1CCN(c2ccc(-c3nc4c(C(=O)Nc5cccnc5)ccnc4[nH]3)cc2)CC1 [Example 327, 2-[4-(4-methyl-piperazin-1-yl)-phenyl]-3H-imidazo[4,5-b]pyridine-7-carboxylic acid pyridin-3-ylamide]",–,50 nM,–
"Cc1ccncc1NC(=O)c1ccnc2[nH]c(-c3ccc(N4CCCC4)cc3)nc12 [Example 332, 2-(4-pyrrolidin-1-yl-phenyl)-3H-imidazo[4,5-b]pyridine-7-carboxylic acid(4-methyl-pyridin-3-yl)-amide]",–,12 nM,–
"O=C(NCCCc1ccncc1)c1ccnc2[nH]c(-c3cccs3)nc12 [Example 109, 2-thiophen-2-yl-3H-imidazo[4,5-b]pyridine-7-carboxylic acid(3-pyridin-4-yl-propyl)-amide]",–,52 nM,–
"CCSc1ccncc1NC(=O)c1ccnc2[nH]c(-c3ccc(Cl)cc3)nc12 [Example 61, 2-(4-chloro-phenyl)-3H-imidazo[4,5-b]pyridine-7-carboxylic acid(4-ethylsulfanyl-pyridin-3-yl)-amide]",–,3 nM,–

# Further lines, with some results ahead:
IC50 (CDK-2/cycline A),IC50 (human GSK-3β),SMILES,other results
2400 nM,–,"CCS(=O)(=O)Nc1ccc(CCNC(=O)c2ccnc3[nH]c(-c4ccc(F)cc4)nc23)cc1 [Example 198, 2-(4-fluoro-phenyl)-3H-imidazo[4,5-b]pyridine-7-carboxylic acid[2-(4-ethanesulfonylamino-phenyl)-ethyl]-amide]",IC50 (KDR): 12500 nM
400 nM,–,"Cc1ccncc1NC(=O)c1ccnc2[nH]c(-c3ccc(NCCCN4CCCC4)cc3)nc12 [Example 340, 2-[4-(3-pyrrolidin-1-yl-propylamino)-phenyl]-3H-imidazo[4,5-b]pyridine-7-carboxylic acid(4-methyl-pyridin-3-yl)-amide]",IC50 (JNK-1): 100 nM
–,20 nM,"CC(=O)Nc1ccc(CCNC(=O)c2ccnc3[nH]c(-c4ccccc4)nc23)cc1 [Example 1, 2-phenyl-3H-imidazo[4,5-b]-pyridine-7-carboxylic acid [2-(4-acetylamino-phenyl)-ethyl]-amide]",–
–,2 nM,"CCOc1cc(C)ncc1NC(=O)c1ccnc2[nH]c(-c3ccc(F)cc3)nc12 [Example 325, 2-(4-fluoro-phenyl)-3H-imidazo[4,5-b]pyridine-7-carboxylic acid(4-ethoxy-6-methyl-pyridin-3-yl)-amide]",–
–,38 nM,"CC(=O)Nc1ccc(CCNC(=O)c2ccnc3[nH]c(-c4ccc(Cl)cc4)nc23)cc1 [Example 44, 2-(4-chloro-phenyl)-3H-imidazo[4,5-b]pyridine-7-carboxylic acid[2-(4-acetylamino-phenyl)-ethyl]-amide]",–
225 nM,–,"COc1ccncc1NC(=O)c1ccnc2[nH]c(-c3ccc(F)cc3)nc12 [Example 246, 2-(4-fluoro-phenyl)-3H-imidazo[4,5-b]pyridine-7-carboxylic acid(4-methyloxy-pyridin-3-yl)-amide]",IC50 (JNK-1): 180 nM; IC50 (KDR): 520 nM
120 nM,–,"CCOc1ccncc1NC(=O)c1ccnc2[nH]c(-c3ccc(F)cc3)nc12 [Example 287, 2-(4-fluoro-phenyl)-3H-imidazo[4,5-b]pyridine-7-carboxylic acid(4-ethoxy-pyridin-3-yl)-amide]",IC50 (JNK-1): 460 nM; IC50 (KDR): 1500 nM

# Reference: US20090170847A1, “Imidazopyridine Derivatives Inhibiting Protein Kinase Activity, Method for the Preparation Thereof and Pharmaceutical Composition Containing Same” (priority 2006, published 2009)
